Results reported in publication PMC9612383, “Biological Activity of NHC-Gold-Alkynyl Complexes Derived from 3-Hydroxyflavones” (Pharmaceutics, 2022).

Columns and labels:
E. coli = test: Scanning electron microscopy of treated E. coli; assay type: cell-based; settings: E. coli treated at 1/2× MIC and MIC, 24 h
Description: 500 μL of a E. coli culture (10^7 CFU mL^−^1) were added per well to a 12-well plate and were further treated with the complex 1b at its MIC and 1/2× MIC. A positive control of bacteria without any treatment and a negative control of only culture medium were included, following the same protocol as the rest of the conditions. Then, the plate was incubated at 37 °C with mild agitation for 24 h. After this time, the bacterial suspensions were transfered into 1.5 mL centrifugation tubes. Then, the bacteria were washed and fixed using glutaraldehyde 2.5% in phosphate buffer 10 mM at pH 7.2, with 2 h incubation. Then, bacteria were gradually dehydrated using EtOH solutions at different v/v% (25, 50, 75 and 100). 10 µL of the dehydrated bacteria solution was placed on a 5 × 5 mm Si waffle, left to dry and coated with a thin layer of carbon.

[1] = target: thioredoxin reductase (TrxR) (Escherichia coli, UniProt P0A9P4); settings: E. coli cell lysates incubated with complex
Description: For sample preparation, E. coli were lysated by sonication. After ultrasonic homogenization, the lysate was centrifuged 1 min at 13,000 rpm and the pellet was resuspended in extraction buffer. […] Both extraction and reaction buffer consisted of 10 mM Tris-HCl, 1 mM EDTA, 100 mM NaCl and protease inhibitor.

S. aureus 13565 = test: Disk diffusion test; assay type: cell-based; settings: complex 5 μg, 24 h incubation; diameter including disk (6 mm)
Description: (§1) To evaluate the antibacterial potential of gold derivatives, six bacterial strains were selected: E. coli, P. aeruginosa, S. enterica, E. faecalis, L. monocytogenes, S. epidermidis, S. aureus. Dis diffusion assay was performed following Clinical & Laboratory Standards Institute (CLSI) recommendations. […] Plates were and incubated for 22 h ± 2 h at 37 °C ± 1 °C and then the diameter of the inhibition zone was determined.

S. aureus 2593 = test: Disk diffusion test; assay type: cell-based; settings: complex 5 μg, 24 h incubation; diameter including disk (6 mm)
Description: as §1

E. faecalis = test: Disk diffusion test; assay type: cell-based; settings: complex 5 μg, 24 h incubation; diameter including disk (6 mm)
Description: as §1

P. aeruginosa = test: Disk diffusion test; assay type: cell-based; settings: complex 5 μg, 24 h incubation; diameter including disk (6 mm)
Description: as §1

S. epidermidis = test: Disk diffusion test; assay type: cell-based; settings: complex 5 μg, 24 h incubation; diameter including disk (6 mm)
Description: as §1

L. monocytogenes = test: Disk diffusion test; assay type: cell-based; settings: complex 5 μg, 24 h incubation; diameter including disk (6 mm)
Description: as §1

E. coli 13216 = test: Disk diffusion test; assay type: cell-based; settings: complex 5 μg, 24 h incubation; diameter including disk (6 mm)
Description: as §1

E. coli 25922 = test: Disk diffusion test; assay type: cell-based; settings: complex 5 μg, 24 h incubation; diameter including disk (6 mm)
Description: as §1

E. coli 8739 = test: Disk diffusion test; assay type: cell-based; settings: complex 5 μg, 24 h incubation; diameter including disk (6 mm)
Description: as §1

S. enterica 14028 = test: Disk diffusion test; assay type: cell-based; settings: complex 5 μg, 24 h incubation; diameter including disk (6 mm)
Description: as §1

thioredoxin reductase (TrxR), sequence (P0A9P4 whole entry): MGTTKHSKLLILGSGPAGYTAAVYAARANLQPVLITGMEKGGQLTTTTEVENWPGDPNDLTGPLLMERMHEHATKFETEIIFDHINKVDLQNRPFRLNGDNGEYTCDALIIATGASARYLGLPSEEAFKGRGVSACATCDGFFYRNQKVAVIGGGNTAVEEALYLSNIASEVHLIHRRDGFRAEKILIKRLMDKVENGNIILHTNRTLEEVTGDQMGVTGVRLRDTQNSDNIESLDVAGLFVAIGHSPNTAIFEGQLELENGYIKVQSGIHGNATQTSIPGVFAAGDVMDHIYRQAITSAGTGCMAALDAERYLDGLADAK

## Cn1cc[n+](C)[c]1[Au-][C]#CCOc1c(-c2ccc(Br)cc2)oc2ccccc2c1=O [1b, [Au(Lb)(IMe)] (R = Br; IMe = C5H10N2)]
E. coli
  cell morphology by SEM: rougher surface of bacteria, with the presence of wrinkles and creases
  size (length) of bacteria by SEM: shrinking of bacteria, which is concentration dependent
[1]
  TrxR activity (percentage respect to control): did not result in a significative reduction of TrxR activity
S. aureus 13565
  Inhibition Zone: 16.58 ± 1.63 mm
S. aureus 2593
  Inhibition Zone: 13.76 ± 0.54 mm
E. faecalis
  Inhibition Zone: 12.50 ± 1.41 mm
P. aeruginosa
  Inhibition Zone: -
S. epidermidis
  Inhibition Zone: 25.05 ± 1.48 mm
L. monocytogenes
  Inhibition Zone: 18.50 ± 1.41 mm
E. coli 13216
  Inhibition Zone: 10.95 ± 0.64 mm
E. coli 25922
  Inhibition Zone: 9.04 ± 2.17 mm
E. coli 8739
  Inhibition Zone: 11.10 ± 0.08 mm
S. enterica 14028
  Inhibition Zone: 9.39 ± 1.26 mm
